Where two headings read alike, the source gives them in different places.
Experiments:
[1] = tested on: HCT116 WT cells; assay: HCT116 WT cell line proliferation (CellTiter-Glo cell viability, 6 days); type: cell-based; conditions: HCT116 WT (parent) cells, 6 days of treatment, CellTiter-Glo cell viability, read-out: HCT-116 WT IC50
Procedure, shortened: (§1)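 Viability by CellTiter-Glo after 6 days' drug exposure in wild-type HCT116 and its MTAP-null knockout, with DMSO-only control. Dosing used either 1:3 steps (top 1 or 10 μM) or 22 points in 1:2 steps (top 10 or 50 μM). IC50 taken where the fitted curve crosses 50% of control.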

[2] = tested on: HCT116 MTAP null cells; assay: HCT116 MTAP null cell line proliferation (CellTiter-Glo cell viability, 6 days); type: cell-based; conditions: HCT116 MTAP null cells, 6 days of treatment, CellTiter-Glo cell viability, read-out: HCT-116 MTAP null IC50
Procedure, shortened: as §1

Structure (SMILES) | IC50 ([1]; Homo sapiens, HCT-116, 144 h) | IC50 ([2]; HCT116-MTAP null, 144 h) | IC50 [1] | IC50 [2]
Nc1nc2cnc(C(=O)N3CCOC[C@H]3c3ccc(C(F)(F)F)cc3)cc2c2c1COC2 (single isomer, unassigned) [Example 482] | > 10 µM | > 1 µM | – | –
Nc1nc2cnc(C(=O)N3CCCC[C@@H]3c3ccc(C(F)(F)F)cc3)cc2c2c1COC2 (single isomer, unassigned) [Example 485] | 1.74 µM | 0.04 µM | – | –
Nc1nc2cnc(C(=O)N3CCCC[C@H]3c3ccc(C(F)(F)F)cc3)cc2c2c1COC2 (single isomer, unassigned) [Example 486] | > 10 µM | > 1 µM | – | –
Nc1nc2ccc(C(=O)N3CCOC[C@H]3c3ccc(C(F)(F)F)cc3)cc2c2ccsc12 (single isomer, unassigned) [Example 487] | > 10 µM | > 1 µM | – | –
Nc1nc2ccc(C(=O)N3CCOC[C@@H]3c3ccc(C(F)(F)F)cc3)cc2c2ccsc12 (single isomer, unassigned) [Example 488] | 7.49 µM | > 1 µM | – | –
Nc1nc2ccc(C(=O)N3CCCC[C@H]3c3ccc(C(F)(F)F)cc3)cc2c2ccsc12 (single isomer, unassigned) [Example 489] | 5.32 µM | > 1 µM | – | –
Nc1nc2ccc(C(=O)N3CCCC[C@@H]3c3ccc(C(F)(F)F)cc3)cc2c2ccsc12 (single isomer, unassigned) [Example 490] | 4.8 µM | > 1 µM | – | –
CC(C)C[C@@H]1COC[C@H](c2ccc(C(F)(F)F)cc2)N1C(=O)c1cc2c3c(c(N)nc2cn1)COC3 (single isomer, unassigned) [Example 566] | > 10 µM | > 10 µM | – | –
CC(C)C[C@H]1COC[C@@H](c2ccc(C(F)(F)F)cc2)N1C(=O)c1cc2c3c(c(N)nc2cn1)COC3 (single isomer, unassigned) [Example 567] | > 10 µM | 2.14 µM | – | –
C[C@H]1OCc2c1c(N)nc1ccc(C(=O)N3CCOC[C@@H]3c3ccc(OC(F)(F)F)cc3)cc21 (single isomer, unassigned) [Example 568] | 1.79 µM | 0.036 µM | – | –
C[C@@H]1OCc2c1c(N)nc1ccc(C(=O)N3CCOC[C@@H]3c3ccc(OC(F)(F)F)cc3)cc21 (single isomer, unassigned) [Example 569] | > 10 µM | > 1 µM | – | –
Nc1nc2ccc(C(=O)N3CCOC[C@@H]3c3ccc(C(F)(F)F)cn3)cc2c2c1COC2 (single isomer, unassigned) [Example 570] | 8.77 µM | 0.221 µM | – | –
Nc1nc2ccc(C(=O)N3CCOC[C@H]3c3ccc(C(F)(F)F)cn3)cc2c2c1COC2 (single isomer, unassigned) [Example 571] | > 10 µM | > 1 µM | – | –
Nc1nc2ccc(C(=O)N3CCOC[C@H]3c3ccc(Br)cn3)cc2c2c1COC2 (single isomer, unassigned) [Example 572] | > 10 µM | > 1 µM | – | –
Nc1nc2ccc(C(=O)N3CCOC[C@@H]3c3ccc(Br)cn3)cc2c2c1COC2 (single isomer, unassigned) [Example 573] | > 10 µM | 0.241 µM | – | –
C[C@@H]1CN(C(=O)c2ccc3nc(N)c4c(c3c2)COC4)[C@H](c2ccc(C(F)(F)F)cn2)CO1 (single isomer, unassigned) [Example 574] | > 10 µM | > 1 µM | – | –
C[C@H]1CN(C(=O)c2ccc3nc(N)c4c(c3c2)COC4)[C@@H](c2ccc(C(F)(F)F)cn2)CO1 (single isomer, unassigned) [Example 575] | 8.48 µM | 0.357 µM | – | –
N#Cc1ccc([C@@H]2COCCN2C(=O)c2ccc3nc(N)c4c(c3c2)COC4)nc1 (single isomer, unassigned) [Example 576] | > 10 µM | > 1 µM | – | –
N#Cc1ccc([C@H]2COCCN2C(=O)c2ccc3nc(N)c4c(c3c2)COC4)nc1 (single isomer, unassigned) [Example 577] | > 10 µM | 0.873 µM | – | –
Nc1nc2ccc(C(=O)N3CCOC[C@H]3c3cccc(Cl)c3)cc2c2c1COC2 (single isomer, unassigned) [Example 578] | > 10 µM | > 1 µM | – | –
Nc1nc2ccc(C(=O)N3CCOC[C@@H]3c3cccc(Cl)c3)cc2c2c1COC2 (single isomer, unassigned) [Example 579] | 7.57 µM | 0.182 µM | – | –
Nc1nc2ccc(C(=O)N3CCOC[C@H]3c3ccc(Cl)cc3)cc2c2c1COC2 (single isomer, unassigned) [Example 580] | > 10 µM | > 1 µM | – | –
Nc1nc2ccc(C(=O)N3CCOC[C@@H]3c3ccc(Cl)cc3)cc2c2c1COC2 (single isomer, unassigned) [Example 581] | 6.57 µM | 0.183 µM | – | –

Second part, the compound after the results:

IC50 ([1]; Homo sapiens, HCT-116, 144 h) | IC50 ([2]; HCT116-MTAP null, 144 h) | IC50 [1] | IC50 [2] | Structure (SMILES)
> 10 µM | > 1 µM | – | – | C[C@H]1COC[C@@H](c2ccc(C(F)(F)F)cn2)N1C(=O)c1ccc2nc(N)c3c(c2c1)COC3 (single isomer, unassigned) [Example 582]
0.616 µM | 0.017 µM | – | – | CC1COC[C@H](c2ccc(C(F)(F)F)cn2)N1C(=O)c1ccc2nc(N)c3c(c2c1)COC3 (single isomer, unassigned) [Example 583]
11.7 µM | 0.236 µM | – | – | Cn1ncc2c3cc(C(=O)N4CCOC[C@@H]4c4ccc(C(F)(F)F)cc4)ccc3nc(N)c21 (single isomer, unassigned) [Example 584]
> 10 µM | > 1 µM | – | – | C[C@@H]1CN(C(=O)c2ccc3nc(N)c4c(c3c2)COC4)[C@@H](c2ccc(OC(F)(F)F)cc2)CO1 (single isomer, unassigned) [Example 585]
2.92 µM | 0.082 µM | – | – | C[C@H]1CN(C(=O)c2ccc3nc(N)c4c(c3c2)COC4)[C@H](c2ccc(OC(F)(F)F)cc2)CO1 (single isomer, unassigned) [Example 586]
> 10 µM | > 1 µM | – | – | C[C@H]1COC[C@@H](c2ccc(OC(F)(F)F)cc2)N1C(=O)c1ccc2nc(N)c3c(c2c1)COC3 (single isomer, unassigned) [Example 587]
0.466 µM | 0.014 µM | – | – | C[C@@H]1COC[C@H](c2ccc(OC(F)(F)F)cc2)N1C(=O)c1ccc2nc(N)c3c(c2c1)COC3 (single isomer, unassigned) [Example 588]
– | – | > 10 µM | 5.1 µM | CC(C)(C)OC(=O)N1CCN(C(=O)c2cc3c4c(c(N)nc3cn2)COC4)[C@@H](c2ccc(C(F)(F)F)cc2)C1 (single isomer, unassigned) [Example 589]
– | – | 1.8 µM | 0.056 µM | CC(C)(C)OC(=O)N1CCN(C(=O)c2cc3c4c(c(N)nc3cn2)COC4)[C@H](c2ccc(C(F)(F)F)cc2)C1 (single isomer, unassigned) [Example 590]
> 10 µM | 6.16 µM | – | – | Nc1nc2ccc(C(=O)N3CCOC[C@H]3c3ccc(OC(F)(F)F)nc3)cc2c2c1COC2 (single isomer, unassigned) [Example 591]
8.9 µM | 0.145 µM | – | – | Nc1nc2ccc(C(=O)N3CCOC[C@@H]3c3ccc(OC(F)(F)F)nc3)cc2c2c1COC2 (single isomer, unassigned) [Example 592]
> 10 µM | 0.936 µM | – | – | Nc1nc2ccc(C(=O)N3CCOC[C@@H]3c3ccc(C(F)(F)F)nn3)cc2c2c1COC2 (single isomer, unassigned) [Example 593]
8.01 µM | 0.138 µM | – | – | Nc1nc2cnc(C(=O)N3CCSC[C@@H]3c3ccc(C(F)(F)F)cc3)cc2c2c1COC2 (single isomer, unassigned) [Example 595, (4-amino-1,3-dihydrofuro[3,4-c][1,7]naphthyridin-8-yl)((3S)-3-(4-(trifluoromethyl)phenyl)-4-thiomorpholinyl)methanone or (4-amino-1,3-dihydrofuro[3,4-c][1,7]naphthyridin-8-yl)((3R)-3-(4-(trifluoromethyl)phenyl)-4-thiomorpholinyl)methanone]
> 10 µM | 0.58 µM | – | – | Nc1nc2cnc(C(=O)N3CCNC[C@@H]3c3ccc(C(F)(F)F)cc3)cc2c2c1COC2 (single isomer, unassigned) [Example 596, (4-amino-1,3-dihydrofuro[3,4-c][1,7]naphthyridin-8-yl)((2S)-2-(4-(trifluoromethyl)phenyl)-1-piperazinyl)methanone or (4-amino-1,3-dihydrofuro[3,4-c][1,7]naphthyridin-8-yl)((2R)-2-(4-(trifluoromethyl)phenyl)-1-piperazinyl)methanone]
> 10 µM | 0.866 µM | – | – | Nc1nc2cnc(C(=O)N3CCCOC[C@@H]3c3ccc(C(F)(F)F)cc3)cc2c2c1COC2 (single isomer, unassigned) [Example 597, (4-amino-1,3-dihydrofuro[3,4-c][1,7]naphthyridin-8-yl)((3S)-3-(4-(trifluoromethyl)phenyl)-1,4-oxazepan-4-yl)methanone or (4-amino-1,3-dihydrofuro[3,4-c][1,7]naphthyridin-8-yl)((3R)-3-(4-(trifluoromethyl)phenyl)-1,4-oxazepan-4-yl)methanone]
> 10 µM | 0.807 µM | – | – | Nc1nc2cnc(C(=O)N3CCC(F)(F)C[C@@H]3c3ccc(C(F)(F)F)cc3)cc2c2c1COC2 (single isomer, unassigned) [Example 598]
> 10 µM | > 10 µM | – | – | Nc1nc2cnc(C(=O)N3CCC(F)(F)C[C@H]3c3ccc(C(F)(F)F)cc3)cc2c2c1COC2 (single isomer, unassigned) [Example 599]
> 10 µM | 0.921 µM | – | – | Nc1nc2cnc(C(=O)N3CCC(F)(F)C[C@@H]3c3ccc(OC(F)(F)F)cc3)cc2c2c1COC2 (single isomer, unassigned) [Example 600]
